Test results taken from patent US20240083846A1, “SMAC MIMETICS FOR TREATMENT OF CANCER, PROCESS FOR PREPARATION AND PHARMACEUTICAL COMPOSITION THEREOF” (COUNCIL OF SCIENTIFIC & INDUSTRIAL RESEARCH, priority 2020, published 2024).
Like-named read-outs stand apart in the source and are kept apart here. Where a SMILES comes first, the peptide text is derived from it. [ ]: non-standard residue; d: D form. The star is where a group is joined. Pro(5R-(5-methylfur-2-yl)) = Cc1ccc([C@H]2CC[C@@H](C(=O)O)N2)o1; NHCHPh2 = c1ccc(C(N*)c2ccccc2)cc1; Chg = N[C@H](C(=O)O)C1CCCCC1; NMeA = CN[C@@H](C)C(=O)O; OBn = c1ccc(CO*)cc1

Experiments:
HT29 cells = assay: SRB cytotoxicity assay, HT29; type: cell-based; conditions: for inhibition at 10 µM: Homo sapiens, read-out: In vitro cytotoxicity at 10 μM dose, HT29 (percent growth inhibition)
Experimental: (§1) In vitro cytotoxic activities of different compounds were assessed by using standard SRB assay in different cells. The absorbance of the treated and untreated cells was measured on a multi-well scanning spectrophotometer (Epoch Microplate Reader, Biotek, USA) at a wavelength of 510 nm. Percent growth inhibition was calculated by using the formula […].

SW 620 cells = assay: SRB cytotoxicity assay, SW 620; type: cell-based; conditions: for inhibition at 10 µM: Homo sapiens, read-out: In vitro cytotoxicity at 10 μM dose, SW 620 (percent growth inhibition)
Experimental: as §1

HCT 116 cells = assay: SRB cytotoxicity assay, HCT 116; type: cell-based; conditions: Homo sapiens, read-out: In vitro cytotoxicity at 10 μM dose, HCT 116 (percent growth inhibition)
Experimental: as §1

[1] = SRB cytotoxicity assay, VERO; type: cell-based, monkey; conditions: monkey
Experimental: as §1

XIAP BIR2 protein = XIAP BIR2 protein (Homo sapiens, UniProt P98170); assay: Fluorescence polarization competition binding assay, XIAP BIR2
Chain of XIAP BIR2 protein (P98170 124-240 limits assumed): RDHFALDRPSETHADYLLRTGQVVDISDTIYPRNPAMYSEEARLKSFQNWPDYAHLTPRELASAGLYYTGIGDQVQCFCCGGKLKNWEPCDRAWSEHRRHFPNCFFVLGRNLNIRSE
Experimental: (§2) The SMAC mimetics 1-9 were tested for their ability to displace the fluorescent labeled peptide AVPIAQK(FAM)-OH from XIAP BIR2 or XIAP BIR3 protein. The dose dependent binding experiment were then carried out by sequentially increasing the concentration of SMAC mimetic compounds at constant concentration of fluorescent labeled peptide and XIAP BIR2 or XIAP BIR3 protein. IC5- values were determined from the plot draw by prism software using nonlinear least-squares analysis. The Ki values of the SMAC mimetics were calculated which was based upon the measured IC50 values, the Kd value between tracer AVPIAQK(FAM)-OH and XIAP BIR2 or XIAP BIR3 complex, and the concentrations of the protein and tracer in the competition assay by using the web based program which are freely accessed at http://sw16.im.med.umich.edu/software/calc_ki/.In-silico.
(§3) Binding isotherms were plotted between FP reading versus log values of protein concentration in nM. The data was analysed using GraphPad prism and Kd values were determined using Boltzmann-sigmoidal non-linear regression curve fitting.

XIAP BIR3 protein = XIAP BIR3 protein (Homo sapiens, UniProt P98170); assay: Fluorescence polarization competition binding assay, XIAP BIR3
Chain of XIAP BIR3 protein (P98170 241-356 limits assumed): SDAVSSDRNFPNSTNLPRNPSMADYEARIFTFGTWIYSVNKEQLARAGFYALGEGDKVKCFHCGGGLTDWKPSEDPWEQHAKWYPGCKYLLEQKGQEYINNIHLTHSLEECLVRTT
Experimental: as §2, §3

SW-620 xenograft = assay: Cisplatin resistant SW-620 xenograft model; type: in vivo, nude Crl: CD1-Foxnlnu mice; conditions: FIG. 7
Source text: All the animals were maintained in a pathogen-free facility under a day—night cycle.

[2] = HCT-116, 10 μM, 48 hours, SRB assay
[3] = VERO cells, 10 μM, 48 hours, SRB assay, read-out: In vitro cytotoxicity at 10 μM dose, VERO (percent growth inhibition)
[4] = HT-29, 10 μM, 48 hours, SRB assay
[5] = displacement of AVPIAQK(FAM)-OH, fluorescence polarization, read-out: Target Binding BIR2 Ki
[6] = displacement of AVPIAQK(FAM)-OH, fluorescence polarization, read-out: Target Binding BIR3 Ki
[7] = SW-620, 10 μM, 48 hours, SRB assay

Ki (XIAP BIR2 protein; [5]) [nM]	Ki (XIAP BIR3 protein; [6]) [nM]	SMILES	inhibition at 10 µM (HCT 116 cells; [2]) [%]	inhibition at 48 h, 10 μM [1, 3] [%]	inhibition at 10 µM (HT29 cells; [4]) [%]	inhibition at 10 µM (SW 620 cells; [7]) [%]	also measured
–	–	CC[C@H](C)[C@H](NC(=O)[C@@H]1CCCN1C(=O)[C@@H](NC(=O)[C@H](C)N)C(C)C)C(=O)O [Compound 1, L-alanyl-L-valyl-L-prolyl-L-isoleucine]	–	–	–	–	In vitro cytotoxicity at 10 μM dose, HT29 (percent growth inhibition) (HT29 cells; 10 μM, 48 hours, SRB assay): −0.01 ± 3.6%; In vitro cytotoxicity at 10 μM dose, SW 620 (percent growth inhibition) (SW 620 cells; 10 μM, 48 hours, SRB assay): 0.97 ± 2.3%
> 10000	> 10000	CC[C@H](C)[C@H](NC(=O)[C@@H]1CC[C@H](c2ccc(C)o2)N1C(=O)[C@@H](NC(=O)[C@H](C)N)C(C)C)C(=O)OCc1ccccc1 [Compound 2, benzyl ((2S,5R)-1-(L-alanyl-L-valyl)-5-(5-methylfuran-2-yl)pyrrolidine-2-carbonyl)-L-isoleucinate]	-7.06 ± 6.9	24.2 ± 22.7	-1.83 ± 5.5	7.88 ± 8	–
1080	230	Cc1ccc([C@H]2CC[C@@H](C(=O)NC(c3ccccc3)c3ccccc3)N2C(=O)[C@@H](NC(=O)[C@H](C)N)C(C)C)o1 [Compound 3, (2S,5R)-1-(L-alanyl-L-valyl)-N-benzhydryl-5-(5-methylfuran-2-yl)pyrrolidine-2-carboxamide]	-2.6 ± 6.1	3.89 ± 3.4	-0.46 ± 2.2	1.44 ± 2.1	–
7390	4380	CC[C@H](C)[C@H](NC(=O)[C@@H]1CC[C@H](c2ccc(C)o2)N1C(=O)[C@@H](NC(=O)[C@H](C)NC)C(C)C)C(=O)OCc1ccccc1 [Compound 4, (2S,3S)-benzyl 3-methyl-2-((2S,5R)-1-((S)-3-methyl-2-((S)-2-(methylamino)propanamido)butanoyl)-5-(5-methylfuran-2-yl)pyrrolidine-2-carboxamido)pentanoate]	-8.07 ± 6.6	4.54 ± 5.6	12 ± 0.6	-4.1	–
3250	500	CN[C@@H](C)C(=O)N[C@H](C(=O)N1[C@@H](c2ccc(C)o2)CC[C@H]1C(=O)NC(c1ccccc1)c1ccccc1)C(C)C [Compound 5, (2S,5R)-N-benzhydryl-1-(methyl-L-alanyl-L-valyl)-5-(5-methylfuran-2-yl)pyrrolidine-2-carboxamide]	5.96 ± 1.2	11.4 ± 1.1	40.9 ± 5.3	8.11 ± 11.3	–
> 10000	1420	CC[C@H](C)[C@H](NC(=O)[C@@H]1CC[C@H](c2ccc(C)o2)N1C(=O)[C@@H](NC(=O)[C@H](C)NC)C1CCCCC1)C(=O)OCc1ccccc1 [Compound 7, (2S,3S)-benzyl 2-((2S,5R)-1-((S)-2-cyclohexyl-2-((S)-2-(methylamino)propanamido)acetyl)-5-(5-methylfuran-2-yl)pyrrolidine-2-carboxamido)-3-methylpentanoate] (H-[NMeA][Chg][Pro(5R-(5-methylfur-2-yl))]I-OBn)	–	–	–	–	inhibition at 10 µM (HCT 116 cells; HCT-116, 48 h): 76.5 ± 2.3%; inhibition at 48 h, 10 μM [1]: 63.2 ± 5%; inhibition at 10 µM (HT29 cells; HT-29, 48 h): 71.6 ± 10.2%; inhibition at 10 µM (SW 620 cells; SW-620, 48 h): 52.9 ± 22.4%
1800	730	CN[C@@H](C)C(=O)N[C@H](C(=O)N1[C@@H](c2ccc(C)o2)CC[C@H]1C(=O)NC(c1ccccc1)c1ccccc1)C1CCCCC1 [Compound 8, (2S ,5R)-N-benzhydryl-1-((S)-2-cyclohexyl-2-((S)-2-(methylamino)propanamido)acetyl)-5-(5-methylfuran-2-yl)pyrrolidine-2-carboxamide]	48.5 ± 6.7	39.4 ± 6.9	66 ± 2.4	38.7 ± 12.6	–
–	–	CC[C@H](C)[C@H](NC(=O)[C@@H]1CC[C@H](c2ccc(C)o2)N1C(=O)[C@@H](NC(=O)[C@H](C)NC)C1CCCCC1)C(=O)NC(c1ccccc1)c1ccccc1 [Compound 9, (2S,5R)-N-((2S ,3S)-1-(benzhydrylamino)-3-methyl-l-oxopentan-2-yl)-1-((S)-2-cyclohexyl-2-((S)-2-(methylamino)propanamido)acetyl)-5-(5-methylfuran-2-yl)pyrrolidine-2-carboxamide] (H-[NMeA][Chg][Pro(5R-(5-methylfur-2-yl))]I-NHCHPh2)	–	–	–	–	inhibition at 10 µM (HCT 116 cells; HCT-116, 48 h): 66.2 ± 15%; inhibition at 48 h, 10 μM ([1]; 10 μM, 48 hours, SRB assay, read-out: In vitro cytotoxicity at 10 μM dose, VERO (percent growth inhibition)): 59.4 ± 11.7%; inhibition at 10 µM (HT29 cells; HT-29, 48 h): 72.7 ± 6.9%; Ki (XIAP BIR2 protein): > 10000 nM; Ki (XIAP BIR3 protein): 790 nM; inhibition at 10 µM (SW 620 cells; SW-620, 48 h): 81.8 ± 3.3%
–	–	N.N.[Cl][Pt][Cl] [cisplatin, reference compound]	–	–	–	–	In vivo anti tumor efficacy (SW-620 xenograft): failed to deliver its effect
